What was measured:
Format in all cases: in vivo
Triticum aestivum = experiment: Crop compatibility post-emergence (greenhouse pot trial)
In short: (§1)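 Crops grown in sandy loam in greenhouse, sprayed at one-leaf stage (2–3 weeks after sowing) with WP or EC formulations in water plus 0.5% additive, 600 L/ha. Damage scored visually after about 3 weeks versus untreated controls, 0% = like control, 100% = dead.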

Setaria viridis [1] = experiment: Herbicidal action post-emergence (greenhouse pot trial); settings: scored visually after about 3 weeks vs untreated controls
In short: (§2)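 Percent herbicidal efficacy, assessed by eye about 3 weeks after spraying, compares treated with untreated plants. Treatment is a post-emergence spray at the one-leaf stage, using a WP or EC preparation plus 0.5% additive in 600 L/ha of water, at 80 g/ha or lower.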

Lolium rigidum [2] = experiment: as above; settings: application rate 20 g/ha, scored visually after about 3 weeks vs untreated controls
In short: as §2

Pharbitis purpurea [3] = experiment: as above
In short: as §2

Matricaria inodora [4] = experiment: as above; settings: scored visually after about 3 weeks vs untreated controls
In short: as §2

Veronica persica [5] = experiment: as above
In short: as §2

Echinochloa crus-galli [6] = experiment: as above; settings: application rate 20 g/ha, scored visually after about 3 weeks vs untreated controls
In short: as §2

Viola tricolor [7] = experiment: as above
In short: as §2

Digitaria sanguinalis = experiment: as above; settings: application rate 20 g/ha
In short: as §2

Amaranthus retroflexus [8] = experiment: as above; settings: scored visually after about 3 weeks vs untreated controls
In short: as §2

Polygonum convolvulus = experiment: as above; settings: scored visually after about 3 weeks vs untreated controls
In short: as §2

Abutilon theophrasti [9] = experiment: as above; settings: scored visually after about 3 weeks vs untreated controls
In short: as §2

Stellaria media [10] = experiment: as above; settings: scored visually after about 3 weeks vs untreated controls
In short: as §2

Zea mays [11] = experiment: Crop compatibility pre-emergence (greenhouse pot trial); settings: effect vs untreated controls
Description: (§3) Seeds of mono- and dicotyledonous weeds and crop plants were laid out in plastic or organic plant pots and covered with soil. The compounds of the invention formulated in the form of wettable powders (WP) or emulsion concentrates (EC) were then applied to the surface of the covering soil as an aqueous suspension or emulsion with addition of 0.5% additive at a water application rate equivalent to 600 L/ha. After the treatment, the pots were placed in a greenhouse and kept under good growth conditions for the test plants. After about 3 weeks, the efficacy of the preparations was scored visually as a percentage by comparison with untreated controls. For example, 100% efficacy=plants have died, 0% efficacy=like control plants.
(§4) Crop compatibilities were also scored correspondingly.
(§5) The effects observed are reported here on selected crop plants by comparison with the untreated controls (values in %).

Oryza sativa = experiment: Crop compatibility post-emergence (greenhouse pot trial); settings: application rate 20 g/ha
In short: as §1

Zea mays [12] = experiment: as above
In short: as §1

Hordeum murinum = experiment: Herbicidal action pre-emergence (greenhouse pot trial); settings: application rate 320 g/ha
Description: as §3, with “control plants. Tables B1 to B16 below show the efficacies of selected compounds of the general formula (I) according to tables I.1 to I.60 on various harmful plants and an application rate corresponding to 320 g/ha or lower that were obtained by the aforementioned trial method.” for “control plants.”

Setaria viridis [13] = experiment: as above; settings: application rate 320 g/ha, scored after about 3 weeks
Description: as §3, with “control plants. Tables B1 to B16 below show the efficacies of selected compounds of the general formula (I) according to tables I.1 to I.60 on various harmful plants and an application rate corresponding to 320 g/ha or lower that were obtained by the aforementioned trial method.” for “control plants.”

Lolium rigidum [14] = experiment: as above; settings: application rate 320 g/ha
Description: as §3, with “control plants. Tables B1 to B16 below show the efficacies of selected compounds of the general formula (I) according to tables I.1 to I.60 on various harmful plants and an application rate corresponding to 320 g/ha or lower that were obtained by the aforementioned trial method.” for “control plants.”

Pharbitis purpurea [15] = experiment: as above; settings: application rate 320 g/ha
Description: as §3, with “control plants. Tables B1 to B16 below show the efficacies of selected compounds of the general formula (I) according to tables I.1 to I.60 on various harmful plants and an application rate corresponding to 320 g/ha or lower that were obtained by the aforementioned trial method.” for “control plants.”

Matricaria inodora [16] = experiment: as above; settings: scored after about 3 weeks
Description: as §3, with “control plants. Tables B1 to B16 below show the efficacies of selected compounds of the general formula (I) according to tables I.1 to I.60 on various harmful plants and an application rate corresponding to 320 g/ha or lower that were obtained by the aforementioned trial method.” for “control plants.”

Veronica persica [17] = experiment: as above
Description: as §3, with “control plants. Tables B1 to B16 below show the efficacies of selected compounds of the general formula (I) according to tables I.1 to I.60 on various harmful plants and an application rate corresponding to 320 g/ha or lower that were obtained by the aforementioned trial method.” for “control plants.”

Echinochloa crus-galli [18] = experiment: as above; settings: application rate 320 g/ha, scored after about 3 weeks
Description: as §3, with “control plants. Tables B1 to B16 below show the efficacies of selected compounds of the general formula (I) according to tables I.1 to I.60 on various harmful plants and an application rate corresponding to 320 g/ha or lower that were obtained by the aforementioned trial method.” for “control plants.”

Viola tricolor [19] = experiment: as above; settings: scored after about 3 weeks
Description: as §3, with “control plants. Tables B1 to B16 below show the efficacies of selected compounds of the general formula (I) according to tables I.1 to I.60 on various harmful plants and an application rate corresponding to 320 g/ha or lower that were obtained by the aforementioned trial method.” for “control plants.”

Avena fatua = experiment: as above; settings: application rate 320 g/ha
Description: as §3, with “control plants. Tables B1 to B16 below show the efficacies of selected compounds of the general formula (I) according to tables I.1 to I.60 on various harmful plants and an application rate corresponding to 320 g/ha or lower that were obtained by the aforementioned trial method.” for “control plants.”

Amaranthus retroflexus [20] = experiment: as above; settings: scored after about 3 weeks
Description: as §3, with “control plants. Tables B1 to B16 below show the efficacies of selected compounds of the general formula (I) according to tables I.1 to I.60 on various harmful plants and an application rate corresponding to 320 g/ha or lower that were obtained by the aforementioned trial method.” for “control plants.”

Abutilon theophrasti [21] = experiment: as above; settings: scored after about 3 weeks
Description: as §3, with “control plants. Tables B1 to B16 below show the efficacies of selected compounds of the general formula (I) according to tables I.1 to I.60 on various harmful plants and an application rate corresponding to 320 g/ha or lower that were obtained by the aforementioned trial method.” for “control plants.”

Stellaria media [22] = experiment: as above; settings: application rate 320 g/ha, scored after about 3 weeks
Description: as §3, with “control plants. Tables B1 to B16 below show the efficacies of selected compounds of the general formula (I) according to tables I.1 to I.60 on various harmful plants and an application rate corresponding to 320 g/ha or lower that were obtained by the aforementioned trial method.” for “control plants.”

Alopecurus myosuroides = experiment: as above; settings: application rate 320 g/ha, scored after about 3 weeks
Description: as §3, with “control plants. Tables B1 to B16 below show the efficacies of selected compounds of the general formula (I) according to tables I.1 to I.60 on various harmful plants and an application rate corresponding to 320 g/ha or lower that were obtained by the aforementioned trial method.” for “control plants.”

Glycine max = experiment: Crop compatibility pre-emergence (greenhouse pot trial); settings: application rate 80 g/ha, effect vs untreated controls
Description: as §3, §4, §5

With `CCC(C)C(Sc1cc(-n2c(=O)cc(C(F)(F)F)n(C)c2=O)c(F)cc1Cl)C(=O)NCC1CCCO1` (centres unmarked) [I.5-221] the “Triticum aestivum (Efficacy in %)” value (Triticum aestivum; application rate 20 g/ha) was 20%, the “Setaria viridis (Efficacy in %)” value (Setaria viridis [1]; application rate 20 g/ha) was 100% and the “Lolium rigidum (Efficacy in %)” value (Lolium rigidum [2]) was 80%. The “Pharbitis purpurea (Efficacy in %)” value (Pharbitis purpurea [3]; application rate 20 g/ha) was 100%, the “Matricaria inodora (Efficacy in %)” value (Matricaria inodora [4]; application rate 20 g/ha) was 100% and the “Veronica persica (Efficacy in %)” value (Veronica persica [5]; application rate 20 g/ha) was 100%. For the same molecule, the “Echinochloa crus-galli (Efficacy in %)” value (Echinochloa crus-galli [6]) was 80%, the “Viola tricolor (Efficacy in %)” value (Viola tricolor [7]; application rate 20 g/ha) was 100% and the “Digitaria sanguinalis (Efficacy in %)” value (Digitaria sanguinalis) was 80%. For the same molecule, the “Amaranthus retroflexus (Efficacy in %)” value (Amaranthus retroflexus [8]; application rate 20 g/ha) was 100%, the “Polygonum convolvulus (Efficacy in %)” value (Polygonum convolvulus; application rate 20 g/ha) was 100% and the “Abutilon theophrasti (Efficacy in %)” value (Abutilon theophrasti [9]; application rate 20 g/ha) was 100%. For the same molecule, the “Stellaria media (Efficacy in %)” value (Stellaria media [10]; application rate 20 g/ha) was 90%.
With `C=CCN(C(=O)C(C)Sc1cc(-n2c(=O)cc(C(F)(F)F)n(C)c2=O)c(F)cc1Cl)C(C)COC` (centres unmarked) [I.1-335] the “Zea mays (Efficacy in %)” value (Zea mays [11]; application rate 20 g/ha) was 20%, the “Oryza sativa (Efficacy in %)” value (Oryza sativa) was 10% and the “Triticum aestivum (Efficacy in %)” value (Triticum aestivum; application rate 80 g/ha) was 20%. For the same molecule, the “Zea mays (Efficacy in %)” value (Zea mays [12]; application rate 80 g/ha) was 10%, the “Setaria viridis (Efficacy in %)” value (Setaria viridis [1]; application rate 80 g/ha) was 100% and the “Pharbitis purpurea (Efficacy in %)” value (Pharbitis purpurea [3]; application rate 80 g/ha) was 100%. The “Matricaria inodora (Efficacy in %)” value (Matricaria inodora [4]; application rate 80 g/ha) was 100%, the “Veronica persica (Efficacy in %)” value (Veronica persica [5]; application rate 80 g/ha) was 100% and the “Viola tricolor (Efficacy in %)” value (Viola tricolor [7]; application rate 80 g/ha) was 100%. For the same molecule, the “Amaranthus retroflexus (Efficacy in %)” value (Amaranthus retroflexus [8]; application rate 80 g/ha) was 100%, the “Polygonum convolvulus (Efficacy in %)” value (Polygonum convolvulus; application rate 80 g/ha) was 100% and the “Abutilon theophrasti (Efficacy in %)” value (Abutilon theophrasti [9]; application rate 80 g/ha) was 100%. For the same molecule, the “Stellaria media (Efficacy in %)” value (Stellaria media [10]; application rate 80 g/ha) was 100%, the “Hordeum murinum (Efficacy in %)” value (Hordeum murinum) was 90% and the “Setaria viridis (Efficacy in %)” value (Setaria viridis [13]) was 100%. For the same molecule, the “Lolium rigidum (Efficacy in %)” value (Lolium rigidum [14]) was 100%, the “Pharbitis purpurea (Efficacy in %)” value (Pharbitis purpurea [15]) was 100% and the “Matricaria inodora (Efficacy in %)” value (Matricaria inodora [16]; application rate 320 g/ha) was 100%. The “Veronica persica (Efficacy in %)” value (Veronica persica [17]; application rate 320 g/ha) was 100%, the “Echinochloa crus-galli (Efficacy in %)” value (Echinochloa crus-galli [18]) was 100% and the “Viola tricolor (Efficacy in %)” value (Viola tricolor [19]; application rate 320 g/ha) was 100%. The “Avena fatua (Efficacy in %)” value (Avena fatua) was 100%, the “Amaranthus retroflexus (Efficacy in %)” value (Amaranthus retroflexus [20]; application rate 320 g/ha) was 100% and the “Abutilon theophrasti (Efficacy in %)” value (Abutilon theophrasti [21]; application rate 320 g/ha) was 100%. For the same molecule, the “Stellaria media (Efficacy in %)” value (Stellaria media [22]) was 100% and the “Alopecurus myosuroides (Efficacy in %)” value (Alopecurus myosuroides) was 90%.
For `CC(Sc1cc(-n2c(=O)cc(C(F)(F)F)n(C)c2=O)c(F)cc1Cl)C(=O)OCC1CCCCO1` (centres unmarked) [I.1-91], the “Glycine max (Efficacy in %)” value (Glycine max) was 20%, the “Zea mays (Efficacy in %)” value (Zea mays [11]; application rate 80 g/ha) was 0% and the “Oryza sativa (Efficacy in %)” value (Oryza sativa) was 10%. For the same molecule, the “Triticum aestivum (Efficacy in %)” value (Triticum aestivum; application rate 5 g/ha) was 10%, the “Zea mays (Efficacy in %)” value (Zea mays [12]; application rate 20 g/ha) was 20% and the “Pharbitis purpurea (Efficacy in %)” value (Pharbitis purpurea [3]; application rate 20 g/ha) was 100%. The “Matricaria inodora (Efficacy in %)” value (Matricaria inodora [4]; application rate 20 g/ha) was 100%, the “Veronica persica (Efficacy in %)” value (Veronica persica [5]; application rate 20 g/ha) was 100% and the “Viola tricolor (Efficacy in %)” value (Viola tricolor [7]; application rate 20 g/ha) was 100%. The “Amaranthus retroflexus (Efficacy in %)” value (Amaranthus retroflexus [8]; application rate 20 g/ha) was 100%, the “Polygonum convolvulus (Efficacy in %)” value (Polygonum convolvulus; application rate 20 g/ha) was 100% and the “Abutilon theophrasti (Efficacy in %)” value (Abutilon theophrasti [9]; application rate 20 g/ha) was 100%. The “Matricaria inodora (Efficacy in %)” value (Matricaria inodora [16]; application rate 80 g/ha) was 100%, the “Veronica persica (Efficacy in %)” value (Veronica persica [17]; application rate 80 g/ha) was 100% and the “Viola tricolor (Efficacy in %)” value (Viola tricolor [19]; application rate 80 g/ha) was 100%. The “Amaranthus retroflexus (Efficacy in %)” value (Amaranthus retroflexus [20]; application rate 80 g/ha) was 100% and the “Abutilon theophrasti (Efficacy in %)” value (Abutilon theophrasti [21]; application rate 80 g/ha) was 100%.

Reference: patent publication US11497212B2, “Substituted thiophenyl uracils, salts thereof and the use thereof as herbicidal agents” (Syngenta Crop Protection AG, priority 2017, dated 2022)
